{
  "source": "patent US6737383B1",
  "about": "“Herbicidal oxadiazolidines” (priority 1999, dated 2004)",
  "key": {"Alexandergrass": {"test_system": "Alexandergrass", "assay": "Test D Alexandergrass", "assay_type": "in vivo, Brachiaria plantaginea", "conditions": "Preemergence, 0 to 100 scale", "summary_of_the_method": "(§1)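 Seeds were sown in greenhouse pots, one species per pot or compartment. Compounds were in a non-phytotoxic solvent mixture with surfactant; preemergence applications went on the sandy loam surface within one day of planting. Injury was rated visually after 14 to 21 days, 0 (none) to 100 (complete control).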"}, "soybean": {"test_system": "soybean", "assay": "Test C postemergence soybean", "assay_type": "in vivo, Glycine max", "conditions": "0 to 100 scale, 0 no effect, 100 complete control", "summary_of_the_method": "(§2)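 Soil: sandy loam/potting mix 60:40. Treatment: postemergence, solvent + surfactant formulation. Readout: visual control score 0–100 vs untreated at ~14–21 days.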"}, "windgrass": {"test_system": "windgrass", "assay": "Test E windgrass", "assay_type": "in vivo, Apera spica-venti", "conditions": "Postemergence, Rate 62 g/ha; 0 to 100 scale", "summary_of_the_method": "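Each compound, carried in a non-phytotoxic solvent blend including surfactant, was applied (postemergence: over the top of young plants at 1- to 4-leaf stage). Plants stayed in the greenhouse about 21 to 28 days before visual comparison with untreated controls.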"}, "surinam grass": {"test_system": "surinam grass", "assay": "Test D surinam grass", "assay_type": "in vivo, Brachiaria decumbens", "conditions": "Preemergence, 0 to 100 scale", "summary_of_the_method": "as §1"}, "dallisgrass": {"test_system": "dallisgrass", "assay": "Test D dallisgrass", "assay_type": "in vivo, Paspalum dilatatum", "conditions": "Preemergence, 0 to 100 scale", "summary_of_the_method": "as §1"}, "large crabgrass": {"test_system": "large crabgrass", "assay": "Test C postemergence large crabgrass", "assay_type": "in vivo, Digitaria sanguinalis", "conditions": "0 to 100 scale, 0 no effect, 100 complete control", "summary_of_the_method": "as §2"}, "tall mallow": {"test_system": "tall mallow", "assay": "Test D tall mallow", "assay_type": "in vivo, Malva sylvestris", "conditions": "Preemergence, 0 to 100 scale", "summary_of_the_method": "as §1"}, "[1]": {"conditions": "Rate 16 g/ha, 0 no injury, 100 complete control"}, "[2]": {"conditions": "Rate 32 g/ha, 0 no injury, 100 complete control"}, "[3]": {"conditions": "Rate 64 g/ha, 0 no injury, 100 complete control"}, "[4]": {"conditions": "Rate 125 g/ha, 0 no injury, 100 complete control"}},
  "data": [
    {"molecule": "CCn1c(=O)on(C(=O)N(c2ccc(F)cc2)C(C)C)c1=O", "note": "[Compound 107]", "values": [
      {"measurement": "Plant response rating, Alexandergrass", "setting": "Alexandergrass; [1]", "value": 0},
      {"measurement": "Plant response rating, Alexandergrass", "setting": "Alexandergrass; [2]", "value": 90},
      {"measurement": "Plant response rating, Alexandergrass", "setting": "Alexandergrass; [3]", "value": 100},
      {"measurement": "Plant response rating, Alexandergrass", "setting": "Alexandergrass; [4]", "value": 100},
      {"measurement": "Plant response rating, Alexandergrass", "setting": "Alexandergrass; Rate 250 g/ha", "value": 100},
      {"measurement": "Plant response rating, Alexandergrass", "setting": "Alexandergrass; Rate 500 g/ha", "value": 100},
      {"measurement": "Plant response rating, Soybean", "setting": "soybean; Rate 140 g/ha", "value": 45},
      {"measurement": "Plant response rating, Soybean", "setting": "soybean; Rate 280 g/ha", "value": 70},
      {"measurement": "Plant response rating, Soybean", "setting": "soybean; Rate 560 g/ha", "value": 85},
      {"measurement": "Plant response rating, Soybean", "setting": "soybean; Rate 1120 g/ha", "value": 85},
      {"measurement": "Plant response rating, Windgrass", "setting": "windgrass", "value": 85},
      {"measurement": "Plant response rating, Surinam grass", "setting": "surinam grass; [1]", "value": 30},
      {"measurement": "Plant response rating, Surinam grass", "setting": "surinam grass; [2]", "value": 75},
      {"measurement": "Surinam grass plant response rating", "setting": "surinam grass; [3]", "value": 100},
      {"measurement": "Surinam grass plant response rating", "setting": "surinam grass; [4]", "value": 100},
      {"measurement": "Plant response rating, Surinam grass", "setting": "surinam grass; Rate 250 g/ha", "value": 100},
      {"measurement": "Plant response rating, Surinam grass", "setting": "surinam grass; Rate 500 g/ha", "value": 100},
      {"measurement": "Plant response rating, Dallisgrass", "setting": "dallisgrass; [1]", "value": 30},
      {"measurement": "Plant response rating, Dallisgrass", "setting": "dallisgrass; [2]", "value": 85},
      {"measurement": "Plant response rating, Dallisgrass", "setting": "dallisgrass; [3]", "value": 100},
      {"measurement": "Plant response rating, Dallisgrass", "setting": "dallisgrass; [4]", "value": 100},
      {"measurement": "Plant response rating, Dallisgrass", "setting": "dallisgrass; Rate 250 g/ha", "value": 100},
      {"measurement": "Plant response rating, Dallisgrass", "setting": "dallisgrass; Rate 500 g/ha", "value": 100},
      {"measurement": "Plant response rating Large crabgrass", "setting": "large crabgrass; Rate 140 g/ha", "value": 70},
      {"measurement": "Plant response rating Large crabgrass", "setting": "large crabgrass; Rate 280 g/ha", "value": 85},
      {"measurement": "Plant response rating Large crabgrass", "setting": "large crabgrass; Rate 560 g/ha", "value": 95},
      {"measurement": "Plant response rating Large crabgrass", "setting": "large crabgrass; Rate 1120 g/ha", "value": 95},
      {"measurement": "Plant response rating, Tall Mallow", "setting": "tall mallow; [1]", "value": 0},
      {"measurement": "Plant response rating, Tall Mallow", "setting": "tall mallow; [2]", "value": 0},
      {"measurement": "Tall Mallow plant response rating", "setting": "tall mallow; [3]", "value": 0},
      {"measurement": "Tall Mallow plant response rating", "setting": "tall mallow; [4]", "value": 90},
      {"measurement": "Plant response rating, Tall Mallow", "setting": "tall mallow; Rate 250 g/ha", "value": 98},
      {"measurement": "Plant response rating, Tall Mallow", "setting": "tall mallow; Rate 500 g/ha", "value": 100}
    ]}
  ]
}
